Experimental data: paper PMC6859963, “Fragment screening for a protein-protein interaction inhibitor to WDR5” (Structural Dynamics, 2019)
Where a name gives a salt, the structure may show the parent alone.

Columns and labels:
WDR5 [1] = biological target: T1, WDR5 (Homo sapiens, UniProt P61964); test: SPR binding of compounds to captured biotinylated WDR5, 1:1 steady-state affinity fit; settings: for Kd: SPR; for LE (ligand efficiency): from SPR KD
T1 construct: hexahistidine-SUMO (N, cleaved yes); made in house; host or cells: E. coli BL21-CodonPlus-RIL
Procedure: SPR assay of small molecule binding used minimally biotinylated WDR5^23–334 protein captured on streptavidin-coated SPR chips. WDR5 (1 eq.) was mixed with freshly water-dissolved EZ-link Sulfo-NHS-LC-LC-biotin (0.8 eq., Thermofisher Scientific). The reaction mixture was incubated on ice for 2 h; unreacted biotin reagent was then removed from the mixture using size-exclusion chromatography on a Superdex 75 (10/300) column equilibrated in storage buffer (10 mM HEPES, 150 mM NaCl, 5 mM DTT).
(§1) SPR experiments were performed using a Biacore T200 or S200 biosensor with a CM5 chip (GE Healthcare). Streptavidin was coupled to the chip surface at 310 K in HBS-P+ running buffer (10 mM HEPES, pH 7.4, 150 mM NaCl, 0.05%[v/v] Tween-20) after a 10 min activation with a 1:1 mixture of NHS/EDC (N-hydroxysuccinimide/N-ethyl-N′-(3-[…])carbodiimide). Protein was diluted to 100 μg·ml^−1 at pH 4.5 (10 mM sodium acetate, 0.005%[v/v] Tween-20) and injected for 7 min. The surface was then blocked with 1 M ethanolamine, pH 8.0, for 7 min. Immobilization levels were typically 7000–13 000 RU, but as low as 1800 RU for compounds 55, 59, and Ac-ARV-NH2, where fitting uses a 1:1 kinetic model to determine dissociation rates. WDR5 capture was then performed over the streptavidin-coupled flow-cells at 293 K in HBS-P+ buffer with the addition of 5 mM DTT. Capture levels for fragment screening were ∼19 000 RU, while capture levels for subsequent testing were ∼9000 RU. The N-terminal domain of heat-shock protein 90 (Hsp90, UnprotKB P08238, residues 1–382) was captured (∼11 000 RU) during screening to provide an unrelated negative control surface, activity being monitored with intermittent ADP (adenosine diphosphate) injections. Biotin was subsequently injected over WDR5- and negative control protein-bound flow-cells to block remaining unbound streptavidin. SPR experiments were performed at 298 K in SPR running buffer containing 50 mM HEPES, 150 mM NaCl, 5 mM DTT, and 0.05%[v/v] Tween-20, 2%[v/v] DMSO. Initial fragments were screened at 100 μM. When performing dose-response testing, analytes were serially diluted (2- or 3-fold), injected for 30 s contact time, and allowed to dissociate for 30 s. The flow rate was 60 μl·min^−1. Binding sensorgrams were processed, solvent-corrected, and double-referenced using Scrubber software (BioLogic Software, Australia). […] Therefore, to determine binding affinities (KD values), responses at equilibrium for each analyte were fitted to a 1:1 steady-state affinity model available within Scrubber.

WDR5 [2] = biological target: T1, WDR5; test: SPR 1:1 kinetic model to determine dissociation rates from WDR5; format: binding; settings: for koff: read-out: kd (dissociation rate); for binding to WDR5: samples were mixtures of diastereomers
From the text: Compound 1 was identified as a highly ligand efficient hit that binds the phenylalanine clamp of the WIN site, approximating the arginine headgroup of the WIN motif. […] Two peptidomimetics, with 1 replacing the arginine, were synthesized. Compounds 55 and 59 are analogs of the Ac-ARV-NH2 and Ac-α-MeAla-RV-NH2 tripeptides,[21] respectively (Fig. 5). […] The hydroxymethyl imidazole thus appears to be a good replacement for the charged arginine residue in this context, and 59 may serve as a tool compound with more sensible physicochemical parameters than previous potent tripeptides. […] Binding constants of compounds 55 and 59 are thus difficult to derive. Instead, the (concentration independent) dissociation rates have been reported for 55 and 59 (kd = 0.067 s^−1 and 0.025 s^−1, respectively) to provide a more meaningful comparison to the analogous tripeptide Ac-ARV-NH2 (kd = 0.054 s^−1). […] However, if multiple diastereomers of 55/59 were indeed binding WDR5, it would not detract from the conclusion that hydroxymethyl imidazole-peptidomimetics have potential as WDR5 WIN-site inhibitors.
as §1

[3] = Table IV, derivatives of 2, mean ± SE (SE not reported where n = 1)
[4] = Table II, fragment core, mean ± SE (SE not reported where n = 1)
[5] = Table III, ether-derivatized 2, mean ± SE (SE not reported where n = 1)
[6] = 1:1 kinetic model, concentration independent, 55 and 59 tested as mixtures of diastereomers

O=C(NCCCCc1ncc(CO)[nH]1)OCc1ccccc1 [Compound 35, Benzyl (4-(5-(hydroxymethyl)-1H-imidazol-2-yl)butyl)carbamate trifluoroacetic acid]
Kd (WDR5 [1]; [3]): 11 ± 1 µM

O=C(NCCCCc1ncc(CO)[nH]1)c1ccccc1 [Compound 30, N-(4-(5-(hydroxymethyl)-1H-imidazol-2-yl)butyl)benzamide]
Kd (WDR5 [1]; [3]): 12 ± 1 µM

CC(=O)NCCCCc1ncc(CO)[nH]1 [Compound 29, N-(4-(5-(hydroxymethyl)-1H-imidazol-2-yl)butyl)acetamide trifluoroacetic acid]
Kd (WDR5 [1]; [3]): 200 ± 10 µM

OCc1ncc[nH]1 [Compound 5]
Kd (WDR5 [1]; [4]): > 3000 µM

COC(=O)N(CCCCc1nc(CO)c[nH]1)Cc1cc[nH]c(=O)c1 [Compound 47, Methyl (4-(4-(hydroxymethyl)-1H-imidazol-2-yl)butyl)((2-oxo-1,2-dihydropyridin-4-yl)methyl)carbamate hydrochloride]
Kd (WDR5 [1]; [3]): 24.2 ± 0.2 µM

CCCOCc1c[nH]c(C)n1 [Compound 8, 2-methyl-4-(propoxymethyl)-1H-imidazole]
Kd (WDR5 [1]; [5]): > 3000 µM

COC(=O)N(CCCCc1nc(CO)c[nH]1)CC1CCNCC1 [Compound 40, Methyl (4-(4-(hydroxymethyl)-1H-imidazol-2-yl)butyl)(piperidin-4-ylmethyl)carbamate bis trifluoroacetic acid]
Kd (WDR5 [1]; [3]): 19 ± 3 µM

COC(=O)NCCCCc1ncc(CO)[nH]1.O=C(O)C(F)(F)F [Compound 32, Methyl (4-(5-(hydroxymethyl)-1H-imidazol-2-yl)butyl)carbamate trifluoroacetic acid]
Kd (WDR5 [1]; [3]): 28.9 ± 0.5 µM | LE (ligand efficiency) (WDR5 [1]): 0.39 kcal·mol^−1·heavy atom^−1

Cc1nc(CO)c[nH]1 [Compound 2, (2-methyl-imidazol-4-yl)methanol]
Kd (WDR5 [1]; [4]): 260 ± 20 µM | Kd (WDR5 [1]; [5]): 260 ± 20 µM | LE (ligand efficiency) (WDR5 [1]): 0.61 kcal·mol^−1·heavy atom^−1

CNC(=O)CCc1nc(CO)c[nH]1 [Compound 23, 3-(4-(hydroxymethyl)-1H-imidazol-2-yl)-N-methylpropanamide]
Kd (WDR5 [1]; [3]): 890 µM

Cc1ncc[nH]1 [Compound 6, 2-methyl imidazole]
Kd (WDR5 [1]; [4]): 2100 µM | LE (ligand efficiency) (WDR5 [1]): 0.60 kcal·mol^−1·heavy atom^−1

OCc1c[nH]c(CCc2ccccc2)n1 [Compound 15, (2-phenethyl-1H-imidazol-4-yl)methanol]
Kd (WDR5 [1]; [3]): 300 ± 40 µM

OCc1c[nH]cn1 [Compound 3]
Kd (WDR5 [1]): > 3000 µM | potency estimated from few doses (WDR5 [1]; Table II, estimated from single concentration (100 μM) screen, read-out: KD): > 3000 µM

COC(=O)N(CCCCc1ncc(CO)[nH]1)Cc1ccccc1 [Compound 37, Methyl benzyl(4-(5-(hydroxymethyl)-1H-imidazol-2-yl)butyl)carbamate trifluoroacetic acid]
Kd (WDR5 [1]; [3]): 4.5 ± 0.3 µM

OCc1c[nH]c(CCCc2ccccc2)n1 [Compound 16, (2-(3-phenylpropyl)-1H-imidazol-4-yl)methanol]
Kd (WDR5 [1]; [3]): 140 ± 30 µM | LE (ligand efficiency) (WDR5 [1]): 0.33 kcal·mol^−1·heavy atom^−1

CCCCc1ncc(CO)[nH]1 [Compound 1, (2-butyl-1H-imidazol-5-yl)methanol]
Kd (WDR5 [1]; [4]): 480 ± 30 µM | LE (ligand efficiency) (WDR5 [1]): 0.41 kcal·mol^−1·heavy atom^−1

COC(=O)N(CCCCc1nc(CO)c[nH]1)Cc1ccc(=O)[nH]c1.O=C(O)C(F)(F)F [Compound 45, Methyl (4-(4-(hydroxymethyl)-1H-imidazol-2-yl)butyl)((6-oxo-1,6-dihydropyridin-3-yl)methyl)carbamate trifluoroacetic acid]
Kd (WDR5 [1]; [3]): 98.6 ± 0.6 µM | fold weaker binding than 37 (WDR5 [1]; ratio of SPR KD values): 20 fold

COCc1c[nH]c(C)n1 [Compound 7]
Kd (WDR5 [1]; [5]): > 3000 µM

O=C(Cc1ccccc1)NCCCCc1ncc(CO)[nH]1 [Compound 31, N-(4-(5-(hydroxymethyl)-1H-imidazol-2-yl)butyl)-2-phenylacetamide trifluoroacetic acid]
Kd (WDR5 [1]; [3]): 25 ± 3 µM

Cc1nc(COCC(F)(F)F)c[nH]1 [Compound 10, 2-methyl-4-((2,2,2-trifluoroethoxy)methyl)-1H-imidazole]
Kd (WDR5 [1]; [5]): > 3000 µM

Cc1nc(COCc2ccccc2)c[nH]1 [Compound 11, 4-((benzyloxy)methyl)-2-methyl-1H-imidazole]
Kd (WDR5 [1]; [5]): 950 µM

CCOC(=O)CCc1nc(CO)c[nH]1 [Compound 24, ethyl 3-(4-(hydroxymethyl)-1H-imidazol-2-yl)propanoate]
Kd (WDR5 [1]; [3]): 240 ± 10 µM

CC(=O)NC(C)(C)C(=O)NC(CCCc1nc(CO)c[nH]1)C(=O)NC(C(N)=O)C(C)C (stereo not shown) [Compound 59, 2-(2-acetamido-2-methylpropanamido)-N-(1-amino-3-methyl-1-oxobutan-2-yl)-5-(4-(hydroxymethyl)-1H-imidazol-2-yl)pentanamide]
koff (WDR5 [2]; [6]): 0.025 s⁻¹ | binding to WDR5 (WDR5 [2]): Binding was observed

Cc1cc(CO)n[nH]1 [Compound 4]
Kd (WDR5 [1]; [4]): > 3000 µM

CC(=O)NC(C)C(=O)NC(CCCc1nc(CO)c[nH]1)C(=O)NC(C(N)=O)C(C)C (stereo not shown) [Compound 55, 2-(2-acetamidopropanamido)-N-(1-amino-3-methyl-1-oxobutan-2-yl)-5-(4-(hydroxymethyl)-1H-imidazol-2-yl)pentanamide]
koff (WDR5 [2]; [6]): 0.067 s⁻¹ | binding to WDR5 (WDR5 [2]): Binding was observed

Cc1nc(COC(C)C)c[nH]1 [Compound 9, 4-(isopropoxymethyl)-2-methyl-1H-imidazole]
Kd (WDR5 [1]; [5]): > 3000 µM

NCCCCc1ncc(CO)[nH]1 [Compound 28, (2-(4-aminobutyl)-1H-imidazol-5-yl)methanol bis trifluoroacetic acid]
Kd (WDR5 [1]; [3]): 350 ± 40 µM

COC(CCc1nc(CO)c[nH]1)c1ccccc1 (stereo not shown) [Compound 17, (2-(3-methoxy-3-phenylpropyl)-1H-imidazol-4-yl)methanol]
Kd (WDR5 [1]; [3]): 22 ± 6 µM | LE (ligand efficiency) (WDR5 [1]): 0.35 kcal·mol^−1·heavy atom^−1

Ac-ARV-NH2 [reference compound]
kd (dissociation rate) (WDR5 [2]; [6]): 0.054 s⁻¹

OCc1c[nH]c(Cc2ccccc2)n1 [Compound 14, (2-benzyl-1H-imidazol-4-yl)methanol]
Kd (WDR5 [1]; [3]): 530 µM

OCc1c[nH]c(-c2ccccc2)n1 [Compound 13]
Kd (WDR5 [1]): 5200 µM | Kd (WDR5 [1]; [3]): > 3000 µM
